The nature of the data set: Stability of the crystalline forms exposed to 100% relative humidity (resulting form identified by powder XRD). It is filed as physicochemical. The settings on record: 100% relative humidity for about 1 week at room temperature. As for the experimental part: The crystal forms were identified using an Applied Research Laboratory (SCINTAG) powder X-ray diffractometer model X'TRA equipped with a solid state detector. The crystal samples were analyzed using a round aluminum sample holder with zero background and copper radiation of 1.5418 Å.

This is an account of results in patent US20060052350A1, “Crystalline forms of 1,24(S)-dihydroxy vitamin D2” (priority 2004, published 2006).

`C=C1/C(=C\C=C2/CCCC3(C)C2CCC3[C@H](C)/C=C/[C@@](C)(O)C(C)C)C[C@@H](O)C[C@@H]1O` (stereo partly drawn) [Form B, 1,24(S)-dihydroxy vitamin D2]: the “Maintenance of crystal structure (no transformation to another crystalline form) on humidity exposure” value is listed as “maintain their crystal structure”.
